Test results: PMC10786919, “Design-rules for stapled peptides with in vivo activity and their application to Mdm2/X antagonists” (Nature Communications, 2024)
pEC50: −log10 of the molar value. ≈ marks a conversion by molar mass, not a printed value. Read-outs that look alike come from different tables or passages of the source. Positions of bridges follow the written chain, without caps; N, C: chain ends. Non-standard residues stand in square brackets, D forms with d. Residues, ends and D or L forms follow the SMILES beside them. Lys(N3) = [N-]=[N+]=NCCCC[C@H](N)C(=O)O; R8 = C=CCCCCCC[C@@](C)(N)C(=O)O; Cba = N[C@@H](CC1CCC1)C(=O)O; S5 = C=CCCC[C@](C)(N)C(=O)O; βAla = NCCC(=O)O

Legend:
[1] = Experimental LogD (partition coefficient); conditions: not stated, Partition Coeff LogD
[2] = Solubility assay (kinetic solubility, PBS pH 7); assay type: physicochemical; conditions: pH 7, aqueous buffer, kinetic from dmso stock, pH 7, PBS; read-out: Solubility
Summary of the method: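 Quantitation uses an external standard at 100 µM, prepared from 10 mM stock in acetonitrile:methanol:DMSO (10:80:10). Solubility (µM) = (peak area of sample ÷ peak area of standard) × standard concentration.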

[3] = Lactate dehydrogenase (LDH) release assay; assay type: cell-based
Summary of the method: (§1)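 Geometric means of at least three independent biological runs are given for LDH release measured in HCT116 cells stably expressing a p53-driven β-lactamase reporter. Plating density was 8000 cells/well; DMSO in wells was 0.5%.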

physchem [4] = assay: physchem
HCT116 cells = assay: Lactate dehydrogenase (LDH) release assay; assay type: cell-based
Summary of the method: as §1

physchem [5] = assay: physchem; remark: listed apart in the source
[6] = Nanoclick permeability assay
Summary of the method: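 Azido-peptide permeability was read as loss of NanoBRET signal (donor 450 nm, acceptor 610 nm) after adding NanoBret618-azide at 10 μM final.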

[7] = 0% FBS 4Hr, read-out: LDH: Cytotoxicity assay EC50
[8] = 10% FBS 4Hr, read-out: LDH: Cytotoxicity assay EC50

CC(=O)N[C@@H](CC(C)C)C(=O)N[C@H](C(=O)N[C@@H](Cc1ccccc1)C(=O)N[C@]1(C)CCCCCCC=CCCC[C@@](C)(C(=O)N[C@@H](CO)C(=O)N[C@@H](C)C(=O)N[C@@H](C)C(N)=O)NC(=O)[C@H](CC2CCC2)NC(=O)[C@H](C)NC(=O)[C@H](C)NC(=O)[C@H](Cc2c[nH]c3ccccc23)NC(=O)[C@H](Cc2ccc(O)cc2)NC(=O)[C@H](CCC(=O)O)NC1=O)[C@@H](C)O [MP-865] (Ac-LTF[R8]EYWAA[Cba][S5]SAA-NH2; staple 4-11) gave a logD [1] of 2.94, a solubility kinetic [2] of 84.5 µM (≈ 143 µg/mL) and a pEC50 ([3]; LDH: Cytotoxicity assay: EC50) of under 4.30. The EPSA (physchem [4]) was 211 A^2.

CC(=O)N[C@@H](CCCCN=[N+]=[N-])C(=O)NCCC(=O)N[C@@H](CC(C)C)C(=O)N[C@H](C(=O)N[C@@H](Cc1ccccc1)C(=O)N[C@]1(C)CCCCCCC=CCCC[C@@](C)(C(=O)N[C@@H](Cc2c[nH]cn2)C(=O)N[C@@H](C)C(=O)N[C@@H](C)C(N)=O)NC(=O)[C@H](CC2CCC2)NC(=O)[C@H](CCC(N)=O)NC(=O)[C@H](C)NC(=O)[C@H](Cc2c[nH]c3ccccc23)NC(=O)[C@H](Cc2ccc(O)cc2)NC(=O)[C@H](CCC(=O)O)NC1=O)[C@@H](C)O [MP-177, AZIDE-ATSP-7041 (S12H)] (Ac-[Lys(N3)][βAla]LTF[R8]EYWAQ[Cba][S5]HAA-NH2; staple 6-13) showed a logD [1] of 2.74, a solubility kinetic [2] of 6.5 µM (≈ 13.1 µg/mL) and a pEC50 [3, 7] of under 4.30. For the same molecule, the “LDH: Cytotoxicity assay % Effect” value (HCT116 cells; 0% FBS 4Hr) was 4.985%, the EPSA (physchem [5]) was 227 A^2 and the cell entry EC50 [6] was 149 nM.

In the case of CC(=O)N[C@@H](CCCCN=[N+]=[N-])C(=O)NCCC(=O)N[C@@H](C)C(=O)N[C@H](C(=O)N[C@@H](Cc1ccccc1)C(=O)N[C@]1(C)CCCCCCC=CCCC[C@@](C)(C(=O)N[C@@H](CO)C(=O)N[C@@H](C)C(=O)N[C@@H](C)C(N)=O)NC(=O)[C@H](CC2CCC2)NC(=O)[C@H](CCC(N)=O)NC(=O)[C@H](C)NC(=O)[C@H](Cc2c[nH]c3ccccc23)NC(=O)[C@H](Cc2ccc(O)cc2)NC(=O)[C@H](C)NC1=O)[C@@H](C)O [MP-958, AZIDE-ATSP-7041 (L1A,E5A)] (Ac-[Lys(N3)][βAla]ATF[R8]AYWAQ[Cba][S5]SAA-NH2; staple 6-13), the logD [1] was 3.13, the solubility kinetic [2] was 5 µM (≈ 9.35 µg/mL) and the pEC50 [3, 7] was under 4.30. The “LDH: Cytotoxicity assay % Effect” value (HCT116 cells; 0% FBS 4Hr) was 13.33%, the “LDH: Cytotoxicity assay % Effect” value (HCT116 cells; 0% FBS 16Hr) was 4.88% and the EPSA (physchem [5]) was 207 A^2. For the same molecule, the cell entry EC50 [6] was 333 nM.

CC(=O)N[C@@H](CCCCN=[N+]=[N-])C(=O)NCCC(=O)N[C@@H](CC(C)C)C(=O)N[C@@H](C)C(=O)N[C@@H](Cc1ccccc1)C(=O)N[C@]1(C)CCCCCCC=CCCC[C@@](C)(C(=O)N[C@@H](CO)C(=O)N[C@@H](C)C(=O)N[C@@H](C)C(N)=O)NC(=O)[C@H](CC2CCC2)NC(=O)[C@H](C)NC(=O)[C@H](C)NC(=O)[C@H](Cc2c[nH]c3ccccc23)NC(=O)[C@H](Cc2ccc(O)cc2)NC(=O)[C@H](CCC(=O)O)NC1=O [MP-962, AZIDE-ATSP-7041 (T2A,Q9A)] (Ac-[Lys(N3)][βAla]LAF[R8]EYWAA[Cba][S5]SAA-NH2; staple 6-13) gave a logD [1] of 2.96, a solubility kinetic [2] of 77.5 µM (≈ 146 µg/mL) and a pEC50 [3, 7] of under 4.30. The “LDH: Cytotoxicity assay % Effect” value (HCT116 cells; 0% FBS 4Hr) was 4.327%, the EPSA (physchem [5]) was 216 A^2 and the cell entry EC50 [6] was 77.6 nM.

CC(=O)N[C@@H](CCCCN=[N+]=[N-])C(=O)NCCC(=O)N[C@@H](CC(C)C)C(=O)N[C@H](C(=O)N[C@@H](Cc1ccccc1)C(=O)N[C@]1(C)CCCCCCC=CCCC[C@@](C)(C(=O)N[C@@H](CCCCN)C(=O)N[C@@H](C)C(=O)N[C@@H](C)C(N)=O)NC(=O)[C@H](CC2CCC2)NC(=O)[C@H](CCC(N)=O)NC(=O)[C@H](C)NC(=O)[C@H](Cc2c[nH]c3ccccc23)NC(=O)[C@H](Cc2ccc(O)cc2)NC(=O)[C@H](CCC(=O)O)NC1=O)[C@@H](C)O [MP-551, AZIDE-ATSP-7041 (S12K)] (Ac-[Lys(N3)][βAla]LTF[R8]EYWAQ[Cba][S5]KAA-NH2; staple 6-13) showed a logD [1] of 2.83, a solubility kinetic [2] of 2 µM (≈ 4.02 µg/mL) and a pEC50 [3, 7] of under 4.30. For the same molecule, the “LDH: Cytotoxicity assay % Effect” value (HCT116 cells; 0% FBS 4Hr) was 3.03%, the “LDH: Cytotoxicity assay % Effect” value (HCT116 cells; 0% FBS 16Hr) was -1.59% and the EPSA (physchem [5]) was 216 A^2. It also gave a cell entry EC50 [6] of 253 nM.

CC(=O)N[C@@H](CCCCN=[N+]=[N-])C(=O)NCCC(=O)N[C@@H](C)C(=O)N[C@H](C(=O)N[C@@H](Cc1ccccc1)C(=O)N[C@]1(C)CCCCCCC=CCCC[C@@](C)(C(=O)N[C@@H](C)C(=O)N[C@@H](C)C(=O)N[C@@H](C)C(N)=O)NC(=O)[C@H](CC2CCC2)NC(=O)[C@H](CCC(N)=O)NC(=O)[C@H](C)NC(=O)[C@H](Cc2c[nH]c3ccccc23)NC(=O)[C@H](Cc2ccc(O)cc2)NC(=O)[C@H](CCC(=O)O)NC1=O)[C@@H](C)O [MP-960, AZIDE-ATSP-7041 (L1A,S12A)] (Ac-[Lys(N3)][βAla]ATF[R8]EYWAQ[Cba][S5]AAA-NH2; staple 6-13) gave a logD [1] of 2.76, a solubility kinetic [2] of 102 µM (≈ 194 µg/mL) and a pEC50 [3, 7] of under 4.30. The “LDH: Cytotoxicity assay % Effect” value (HCT116 cells; 0% FBS 4Hr) was 17.36%, the EPSA (physchem [5]) was 221 A^2 and the cell entry EC50 [6] was 286 nM.

With CC(=O)N[C@@H](CCCCN=[N+]=[N-])C(=O)NCCC(=O)N[C@@H](CC(C)C)C(=O)N[C@H](C(=O)N[C@@H](Cc1ccccc1)C(=O)N[C@]1(C)CCCCCCC=CCCC[C@@](C)(C(=O)N[C@@H](C)C(=O)N[C@@H](C)C(=O)N[C@@H](C)C(N)=O)NC(=O)[C@H](CC2CCC2)NC(=O)[C@H](C)NC(=O)[C@H](C)NC(=O)[C@H](Cc2c[nH]c3ccccc23)NC(=O)[C@H](Cc2ccc(O)cc2)NC(=O)[C@H](CCC(=O)O)NC1=O)[C@@H](C)O [MP-8966, AZIDE-ATSP-7041 (Q9A,S12A)] (Ac-[Lys(N3)][βAla]LTF[R8]EYWAA[Cba][S5]AAA-NH2; staple 6-13) the logD [1] was 2.92, the solubility kinetic [2] was 111 µM (≈ 211 µg/mL) and the pEC50 [3, 7] was under 4.30. The pEC50 [3, 8] was under 4.30, the “LDH: Cytotoxicity assay % Effect” value (HCT116 cells; 0% FBS 4Hr) was 5.4% and the “LDH: Cytotoxicity assay % Effect” value (HCT116 cells; 10% FBS 4Hr) was 4.079%. For the same molecule, the EPSA (physchem [5]) was 215 A^2 and the cell entry EC50 [6] was 202 nM.

In the case of CC(=O)N[C@@H](CCCCN=[N+]=[N-])C(=O)NCCC(=O)N[C@@H](C)C(=O)N[C@@H](C)C(=O)N[C@@H](Cc1ccccc1)C(=O)N[C@]1(C)CCCCCCC=CCCC[C@@](C)(C(=O)N[C@@H](CO)C(=O)N[C@@H](C)C(=O)N[C@@H](C)C(N)=O)NC(=O)[C@H](CC2CCC2)NC(=O)[C@H](CCC(N)=O)NC(=O)[C@H](C)NC(=O)[C@H](Cc2c[nH]c3ccccc23)NC(=O)[C@H](Cc2ccc(O)cc2)NC(=O)[C@H](CCC(=O)O)NC1=O [MP-957, AZIDE-ATSP-7041 (L1A,T2A)] (Ac-[Lys(N3)][βAla]AAF[R8]EYWAQ[Cba][S5]SAA-NH2; staple 6-13), the logD [1] was 2.69, the solubility kinetic [2] was 101 µM (≈ 192 µg/mL) and the pEC50 [3, 7] was 4.77. The pEC50 ([3]; 4 hours, 0% serum, read-out: LDH Cytotoxicity assay EC50) was 4.77, the “LDH: Cytotoxicity assay % Effect” value (HCT116 cells; 0% FBS 4Hr) was 25.16% and the EPSA (physchem [5]) was 226 A^2. For the same molecule, the cell entry EC50 [6] was 125 nM.

With CC(=O)N[C@@H](CCCCN=[N+]=[N-])C(=O)NCCC(=O)N[C@@H](CC(C)C)C(=O)N[C@H](C(=O)N[C@@H](Cc1ccccc1)C(=O)N[C@]1(C)CCCCCCC=CCCC[C@@](C)(C(=O)N[C@@H](CO)C(=O)N[C@@H](C)C(=O)N[C@@H](C)C(N)=O)NC(=O)[C@H](CC2CCC2)NC(=O)[C@H](CCC(N)=O)NC(=O)[C@H](C)NC(=O)[C@H](Cc2c[nH]c3ccccc23)NC(=O)[C@H](Cc2ccc(O)cc2)NC(=O)[C@H](Cc2c[nH]cn2)NC1=O)[C@@H](C)O [MP-175, AZIDE-ATSP-7041 (E5H)] the logD [1] was 3.42, the solubility kinetic [2] was 2 µM (≈ 3.96 µg/mL) and the pEC50 [3, 7] was under 4.30. For the same molecule, the pEC50 [3, 8] was under 4.30, the “LDH: Cytotoxicity assay % Effect” value (HCT116 cells; 0% FBS 4Hr) was 2.645% and the “LDH: Cytotoxicity assay % Effect” value (HCT116 cells; 0% FBS 16Hr) was 7.95%. For the same molecule, the “LDH: Cytotoxicity assay % Effect” value (HCT116 cells; 10% FBS 4Hr) was -1.124%, the EPSA (physchem [5]) was 214 A^2 and the cell entry EC50 [6] was 316 nM.
